Results from patent US6395741B1, “Agent for prophylaxis or treatment of dysuria” (Tanabe Seiyaku Co., Ltd., priority 1998, dated 2002).
Square brackets hold non-standard residues; d marks the D form. Ends that are not written are not given here. Peptide text beside a SMILES is read from it. Nva = CCC[C@H](N)C(=O)O

What was measured:
anesthetized dogs = test: Urethral resistance increasing activity in the anesthetized dogs; type: in vivo, dog
Method: (§1) Polyethylene tubes were inserted to male adult mongrel dogs which had been fasted overnight (four dogs, weights: 10 to 14 kg), under pentobarbital anesthesia (30 mg/kg, i.v.), at the femoral veins on both sides. The anesthesia was maintained by continuous transfusion of pentobarbital (4.5 mg/kg) from said polyethylene tubes, and the dogs were ventilated by a respirator for animal (20 strokes per minute, 15 ml/kg/ventilation). Then, a polyethylene tube was inserted for administration of a test compound into the duodenum, and the urinary bladder and the proximal urethra were exposed. In order to avoid the urinary backup within the urinary bladder, a polyethylene tube having a silicon tube was inserted at the ureters on both sides, by which a way for excreting the urine from the body was reserved. Moreover, in order to determine the ventral and dorsal prostatic urethral resistances, the apex of the urinary bladder was incised, and a 2-hole open-tip catheter (12Fr, manufactured by CLINY) was inserted into the prostatic urethra through the bladder body. Said catheter was ligated at the proximal urethra and the bladder body, and one of the ends thereof was connected with a pressure-transducer and a syringe pump (SP-25, manufactured by Terumo Corporation) via a three-way turncock. Then, the change in the perfusion pressure (i.e., the change in the urethral resistance, mmHg) caused by the continuous infusion of physiological saline (37° C., 3 ml/hr) through this catheter was recorded on a linearcorder (WR-3701, manufactured by Graphtec Corporation) via a carrier amplifier (AP-621G, manufactured by Nihon Kohden Corporation).
In order to increase the urethral resistance, a solution of phenylephrine (α1 agonist) or endothelin-1 in physiological saline was intravenously administered at a prescribed dose (volume: 0.1 ml/kg) to the dogs when 60 minutes or more elapsed after the above operation.

[1] = tested on: smooth muscle of hypertrophied prostatic adenoma; settings: Journal of Japanese Urology Society, vol. 84, No. 9, 1993; cited from earlier work
[2] = tested on: prostatic contractions induced by endothelin-1; settings: JP-A-8-508034; cited from earlier work
[3] = tested on: increase in urethral resistance induced by endothelin-1; test: Inhibitory activity against the increase in urethral resistance induced by endothelin-1; type: in vivo, dog; settings: intraduodenal administration 1 mg/kg; endothelin-1 0.4 nmol/kg i.v.; dogs
Method: as §1, with “Moreover, in order to determine the ventral and dorsal prostatic urethral resistances, the apex of the urinary bladder was incised, and a 2-hole open-tip catheter (12Fr, manufactured by CLINY) was inserted into the prostatic urethra through the bladder body. Said catheter was ligated at the proximal urethra and the bladder body, and one of the ends thereof was connected with a pressure-transducer and a syringe pump (SP-25, manufactured by Terumo Corporation) via a three-way turncock.” left out, “Corporation). […]” for “Corporation).”

endothelin-1 (CSCSSLMDKECVYFCHLDIIW; ends and bridges not checked; cysteine pairing not given here; UniProt P05305 53-73, looked up)
Average increase of the urethral resistance relative to phenylephrine at 30 μg/kg (anesthetized dogs; endothelin-1 0.4 nmol/kg vs phenylephrine 30 μg/kg, i.v., dogs): about 4 times
Urethral pressure (increase of the prostatic urethral resistance) (anesthetized dogs; endothelin-1 i.v. 0.05 nmol/kg, anesthetized dogs): 2.2 mmHg
Urethral pressure (increase of the prostatic urethral resistance) (anesthetized dogs; endothelin-1 i.v. 0.1 nmol/kg, anesthetized dogs): 4.5 mmHg
Urethral pressure (increase of the prostatic urethral resistance) (anesthetized dogs; endothelin-1 i.v. 0.2 nmol/kg, anesthetized dogs): 14.3 mmHg
Urethral pressure (increase of the prostatic urethral resistance) (anesthetized dogs; endothelin-1 i.v. 0.4 nmol/kg, anesthetized dogs): 18.9 mmHg
Urethral pressure (increase of the prostatic urethral resistance) (anesthetized dogs; endothelin-1 i.v. 0.8 nmol/kg, anesthetized dogs): 15.4 mmHg
Duration of the urethral resistance increasing activity (anesthetized dogs; i.v., anesthetized dogs, compared with phenylephrine): more long-acting than that of phenylephrine

CCC[C@@H]1NC(=O)[C@@H](C(C)C)NC(=O)[C@@H]2CCCN2C(=O)[C@@H](CC(=O)O)NC(=O)[C@@H](Cc2c[nH]c3ccccc23)NC1=O (cyclo([Nva][dW][dD]P[dV]))
Inhibition of contractions of the smooth muscle of hypertrophied prostatic adenoma induced by endothelin-1 [1]: inhibited

N-(4-isopropylbenzenesulfonyl)-α-(4-carboxy-2-n-propylphenoxy)-3,4-methylenedioxyphenylacetamide dipotassium salt
Activity of inhibiting the prostatic contractions induced by endothelin-1 [2]: shows an activity of inhibiting

CNC[C@H](O)c1cccc(O)c1 [phenylephrine]
Urethral pressure (increase of the prostatic urethral resistance) (anesthetized dogs; phenylephrine i.v. 0.3 μg/kg, anesthetized dogs): 0.8 mmHg
Urethral pressure (increase of the prostatic urethral resistance) (anesthetized dogs; phenylephrine i.v. 1 μg/kg, anesthetized dogs): 2.1 mmHg
Urethral pressure (increase of the prostatic urethral resistance) (anesthetized dogs; phenylephrine i.v. 3 μg/kg, anesthetized dogs): 3.3 mmHg
Urethral pressure (increase of the prostatic urethral resistance) (anesthetized dogs; phenylephrine i.v. 10 μg/kg, anesthetized dogs): 4.6 mmHg
Urethral pressure (increase of the prostatic urethral resistance) (anesthetized dogs; phenylephrine i.v. 30 μg/kg, anesthetized dogs): 4.9 mmHg

Cc1ccc(-c2c(NS(=O)(=O)c3ccc(C(C)(C)CO)cc3)ncnc2OCCOc2ncc(Br)cn2)cc1.[Na] [test compound, 4-(2-hydroxy-1,1-dimethylethyl)-N-[6-{2-(5-bromopyrimidin-2-yloxy)ethoxy}-5-(4-methylphenyl)pyrimidin-4-yl]benzenesulfonamide sodium salt 1.5 hydrate]
Inhibition of the increase in urethral resistance induced by endothelin-1 [3]: completely inhibited
